Measurements as given in patent US20110288042A1, “STABLE HIGHLY PURE AZACITIDINE AND PREPARATION METHODS THEREFOR” (CHEMAGIS LTD., priority 2007, published 2011).

Assays:
[1] = Induced degradation of 5-azacytidine in solid state (observation, FT-IR, HPLC); assay type: physicochemical; conditions: for Area (%) at RRT 1.00 (5-azacytidine) / Area (%) of peak at RRT 0.63 / Area (%) of peak at RRT 2.01 / Area (%) of peak at RRT 2.05 / Total impurities (%): solid
Description: (§1) The HPLC measurements were performed using a system equipped with an Inertsil C18 column (ODS-2, 5 microns, 250×4.6 mm (ODS-167)). Other parameters of the system were as follows: • Detection: UV detector operated on 242 nm • Column temperature: 20° C. • Run time: 45 minutes • Injection volume: 10 μl • Flow rate: 1.0 ml/minute • Sample set temperature: 5° C. • Sample concentration: about 1.65 mg/ml • Diluent: Mixture of 30% 10 mM ammonium acetate and 70% THF
(§2) Analyses were performed using the following mobile phase • Mobile Phase (Eluent) A: 10 mM ammonium acetate • Mobile Phase (Eluent) B: 60% 10 mM ammonium acetate, 40% MeOH
The sample was placed in a UV chamber and exposed to UV light for 48 hours. • Accelerated conditions [40±2° C./75±5% Relative Humidity (RH)].
At the end of the stipulated time period, the physical descriptions of each sample were noted down. Identification tests were performed by FT-IR, and purity checks were performed by HPLC analysis. The protected sample, as defined herein, is the reference storage material used for carrying out the experiments detailed in Tables 7 and 8.

[2] = Induced degradation of 5-azacytidine in liquid state (HPLC); assay type: physicochemical
Description: as §1, §2
Acidic hydrolysis—blank preparation: Hydrochloric acid (5 ml, 0.01M HCl) was diluted to 10 ml with the diluent. […] An aliquot (5 ml) was diluted to 10 ml with the diluent. The blank preparation and sample preparation were injected to the HPLC system by using the chromatographic conditions as mentioned in example 8. • Basic hydrolysis—blank preparation: Sodium hydroxide (5 ml, 0.01M NaOH) was diluted to 10 ml with the diluent. […] An aliquot (5 ml) was diluted to 10 ml with diluent. […] An aliquot (5 ml) was diluted to 10 ml with the diluent. The blank and sample preparations were injected to the HPLC system using the chromatographic conditions as detailed in example 8. • Photolysis—blank preparation: The diluent (50 ml) was mixed under UV light for 48 hours. […] The blank preparation and sample preparation were injected to the HPLC system using the chromatographic conditions as mentioned in example 8.

[3] = accelerated conditions (40 ± 2° C., 75 ± 5% RH), 48 hours
[4] = exposure to ambient conditions, visible light 48 hours
[5] = exposure to elevated temperature (105° C.), 48 hours
[6] = Acidic: 0.01M HCl, room temperature, about 1 hour
[7] = Basic: 0.01M NaOH, room temperature, about 1 hour
[8] = Oxidation: 10% hydrogen peroxide solution, room temperature, about 1 hour
[9] = Photolysis: in the diluent, UV light 48 hours

SMILES: Nc1ncn([C@@H]2O[C@H](CO)[C@@H](O)[C@H]2O)c(=O)n1 [5-azacytidine, 4-amino-1-β-D-ribofuranosyl-1,3,5-s-triazine-2(1H)-one]
- FT-IR spectra changes ([1]; solid state induced degradation): did not show any significant changes
- Stability in solid state (HPLC analysis) ([1]; solid state, Tables 7 and 8): stable to heat and IJV light
- Change in color of the sample ([1]; solid state, exposed to an elevated temperature): slight change in color
- Area (%) at RRT 1.00 (5-azacytidine) [1, 3]: 97.04%
- Area (%) of peak at RRT 0.63 [1, 3]: 1.90%
- Area (%) of peak at RRT 2.01 [1, 3]: 0.80%
- Area (%) of peak at RRT 2.05 [1, 3]: 0.14%
- Total impurities (%) [1, 3]: 2.96%
- Area (%) at RRT 1.00 (5-azacytidine) ([1]; exposure to UV light, 48 hours): 96.64%
- Area (%) of peak at RRT 0.63 ([1]; exposure to UV light, 48 hours): 1.66%
- Area (%) of peak at RRT 2.01 ([1]; exposure to UV light, 48 hours): 1.35%
- Area (%) of peak at RRT 2.05 ([1]; exposure to UV light, 48 hours): 0.24%
- Total impurities (%) ([1]; exposure to UV light, 48 hours): 3.36%
- Area (%) at RRT 1.00 (5-azacytidine) [1, 4]: 96.75%
- Area (%) of peak at RRT 0.63 [1, 4]: 1.52%
- Area (%) of peak at RRT 2.01 [1, 4]: 1.36%
- Area (%) of peak at RRT 2.05 [1, 4]: 0.27%
- Total impurities (%) [1, 4]: 3.25%
- Area (%) at RRT 1.00 (5-azacytidine) [1, 5]: 96.61%
- Area (%) of peak at RRT 0.63 [1, 5]: 2.00%
- Area (%) of peak at RRT 2.01 [1, 5]: 1.01%
- Area (%) of peak at RRT 2.05 [1, 5]: 0.17%
- Total impurities (%) [1, 5]: 3.39%
- Area (%) at RRT 1.00 (5-azacytidine) ([1]; protected sample (storage)): 96.72%
- Area (%) of peak at RRT 0.63 ([1]; protected sample (storage)): 1.55%
- Area (%) of peak at RRT 2.01 ([1]; protected sample (storage)): 1.37%
- Area (%) of peak at RRT 2.05 ([1]; protected sample (storage)): 0.24%
- Total impurities (%) ([1]; protected sample (storage)): 3.28%
- Area (%) at RRT 1.00 (5-azacytidine) [2, 6]: 71.96%
- Area (%) of peak at RRT 0.33 [2, 6]: 0.17%
- Area (%) of peak at RRT 0.63 [2, 6]: 21.1%
- Area (%) of peak at RRT 1.18 [2, 6]: 5.35%
- Area (%) of peak at RRT 1.65 [2, 6]: 0.14%
- Area (%) of peak at RRT 2.01 [2, 6]: 1.10%
- Total impurities (%) [2, 6]: 28.04%
- Area (%) at RRT 1.00 (5-azacytidine) [2, 7]: 3.38%
- Area (%) of peak at RRT 0.33 [2, 7]: 89.92%
- Area (%) of peak at RRT 0.42 [2, 7]: 3.97%
- Total impurities (%) [2, 7]: 96.62%
- Area (%) at RRT 1.00 (5-azacytidine) [2, 8]: 97.18%
- Area (%) of peak at RRT 0.33 [2, 8]: 0.84%
- Area (%) of peak at RRT 0.42 [2, 8]: 0.06%
- Area (%) of peak at RRT 0.63 [2, 8]: 0.23%
- Area (%) of peak at RRT 2.01 [2, 8]: 1.62%
- Total impurities (%) [2, 8]: 2.82%
- Area (%) at RRT 1.00 (5-azacytidine) [2, 9]: 61.64%
- Area (%) of peak at RRT 0.33 [2, 9]: 0.85%
- Area (%) of peak at RRT 0.39 [2, 9]: 0.11%
- Area (%) of peak at RRT 0.42 [2, 9]: 0.20%
- Area (%) of peak at RRT 0.63 [2, 9]: 35.24%
- Area (%) of peak at RRT 1.18 [2, 9]: 0.46%
- Area (%) of peak at RRT 1.65 [2, 9]: 0.39%
- Area (%) of peak at RRT 2.01 [2, 9]: 0.86%
- Area (%) of peak at RRT 2.05 [2, 9]: 0.17%
- Total impurities (%) [2, 9]: 38.36%
- Area (%) at RRT 1.00 (5-azacytidine) ([2]; Storage (reference sample)): 96.72%
- Area (%) of peak at RRT 0.63 ([2]; Storage (reference sample)): 1.55%
- Area (%) of peak at RRT 2.01 ([2]; Storage (reference sample)): 1.37%
- Area (%) of peak at RRT 2.05 ([2]; Storage (reference sample)): 0.24%
- Total impurities (%) ([2]; Storage (reference sample)): 3.28%
